PMC6319706 (PLoS ONE, 2019)
Like-named read-outs stand apart in the source and are kept apart here.

Key:
mouse adult α1β1εδ nAChR [1] = molecular target: T1, mouse adult α1β1εδ nAChR (Mus musculus, UniProt P02716+P04756+P09690+P20782); experiment: cell-based; type: cell-based
human α7 nAChR = human α7 nAChR (Homo sapiens, UniProt P36544); experiment: cell-based
mouse 5-HT3AR [2] = molecular target: T2, mouse 5-HT3AR (Mus musculus, UniProt P23979); experiment: cell-based; type: cell-based
mouse adult α1β1εδ nAChR [3] = molecular target: T1, mouse adult α1β1εδ nAChR; type: cell-based
mouse α3β2γ2 GABAAR = mouse α3β2γ2 GABAAR (Mus musculus, UniProt P22723+P26049+P63137); experiment: cell-based; details: for inhibition at 100 µM: read-out: inhibition of GABA-evoked currents
α1β3γ2 GABAAR = α1β3γ2 GABAAR (Mus musculus, UniProt P62812+P63080); type: binding
mouse 5-HT3AR [4] = molecular target: T2, mouse 5-HT3AR; details: cited from earlier work
human 5-HT3AR = details: cited from earlier work
GABAAR = details: cited from earlier work
[5] = tested on: end-plate muscle type nAChRs; details: cited from earlier work

Compound	IC50 (mouse adult α1β1εδ nAChR [1])	nH (Hill slope) (mouse adult α1β1εδ nAChR [1])	IC50 (human α7 nAChR)	nH (Hill slope) (human α7 nAChR)	IC50 (mouse 5-HT3AR [2])	fold less active than d-TC (mouse 5-HT3AR [2])	nH (Hill slope) (mouse 5-HT3AR [2])	effect on maximal acetylcholine response (in words) (mouse adult α1β1εδ nAChR [3])	inhibition at 100 µM (mouse α3β2γ2 GABAAR)	competition with Alexa Fluor 546 αCtx binding (in words) (α1β3γ2 GABAAR)	fold less potent than BBIQA1 and d-TC (mouse adult α1β1εδ nAChR [1])	inhibition of GABA-evoked currents (mouse α3β2γ2 GABAAR)	IC50 (mouse 5-HT3AR [4])	IC50 (human 5-HT3AR)	inhibition of GABAAR (in words) (GABAAR)	fold higher affinity of orthosteric α/ε (or α/γ) site than orthosteric α/δ site [5]
COc1cc2c(cc1O)[C@@H](Cc1ccc(O)c(Oc3cc4c(cc3OC)CCN[C@H]4Cc3ccc(O)cc3)c1)NCC2 [BBIQA1]	750 nM	-0.96 ± 0.16	1700 nM	-0.83 ± 0.17	119 nM	5 fold	-1.06 ± 0.09	reduces the maximal acetylcholine response	40 to 50%	comparable affinities	–	–	–	–	–	–
COc1ccc2cc1Oc1cc3c(cc1O)CCN[C@H]3Cc1ccc(cc1)Oc1c(O)c(OC)cc3c1[C@@H](C2)[N+](C)(C)CC3 [BBIQA2]	1750 nM	-1.04 ± 0.21	3080 nM	-0.94 ± 0.29	1970 nM	87 fold	-1.83 ± 0.01	reduces the maximal acetylcholine response	40 to 50%	comparable affinities	~ 2 fold	–	–	–	–	–
COc1cc2c3cc1Oc1cc(ccc1O)C[C@@H]1c4c(cc(OC)c(O)c4Oc4ccc(cc4)C[C@@H]3N(C)CC2)CC[N+]1(C)C [d-TC, d-tubocurarine, reference compound]	810 nM	-1.87 ± 0.41	2030 nM	-1.39 ± 0.21	22.6 nM	–	-1.19 ± 0.21	reduces the maximal acetylcholine response	90%	comparable affinities	–	almost completely inhibited	11.4 to 13 nM	1800 nM	inhibits GABAAR	100 fold
α-bungarotoxin [αBgt, reference compound]	–	–	–	–	–	–	–	did not observe any reduction in the maximal amplitude	–	–	–	–	–	–	–	–
